The source of these data is patent US9115127B2 (AMGEN INC., priority 2010, dated 2015).

The structures appear in SMILES notation.

What is called IC50 is the concentration needed to halve the response being measured. A higher IC50 goes with lower potency.

In the assay the target is T1, wild-type human ALK (cytoplasmic domain, amino acids 1058-1620, N-terminal GST fusion) (Homo sapiens, UniProt Q9UM73).
T1 construct: The cytoplasmic domain (amino acids 1058-1620) of wild-type human ALK; GST (N); made in house; host or cells: SF9 insect cells
T1 sequence (Q9UM73 1058-1620): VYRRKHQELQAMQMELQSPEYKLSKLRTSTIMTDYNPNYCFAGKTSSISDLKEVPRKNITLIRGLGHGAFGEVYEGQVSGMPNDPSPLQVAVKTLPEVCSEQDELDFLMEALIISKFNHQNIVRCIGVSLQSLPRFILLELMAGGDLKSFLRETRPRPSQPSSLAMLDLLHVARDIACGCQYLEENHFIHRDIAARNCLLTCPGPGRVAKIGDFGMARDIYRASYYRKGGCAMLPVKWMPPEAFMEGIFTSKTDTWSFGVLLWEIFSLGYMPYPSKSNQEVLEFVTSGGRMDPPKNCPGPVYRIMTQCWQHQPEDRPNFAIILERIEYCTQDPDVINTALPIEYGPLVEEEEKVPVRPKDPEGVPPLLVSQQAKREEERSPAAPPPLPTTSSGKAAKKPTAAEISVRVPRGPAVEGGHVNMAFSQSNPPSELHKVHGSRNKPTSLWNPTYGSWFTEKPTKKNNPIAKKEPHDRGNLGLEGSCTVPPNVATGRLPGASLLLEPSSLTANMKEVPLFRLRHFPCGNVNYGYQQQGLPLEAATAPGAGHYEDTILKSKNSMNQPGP
Description: ALK Inhibition in Enzyme Assay (Lance TR-FRET kinase assay). In kind it is biochemical. The method, boiled down:
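Purified enzyme phosphorylated a biotinylated peptide substrate for 90 minutes at room temperature. Reactions were stopped with 20 mM EDTA in 50 mM Tris (pH 7.5), 100 mM NaCl, 0.05% BSA, 0.1% Tween-20. Phosphopeptide was detected by TR-FRET with SA-APC and Eu-W1024 anti-phosphotyrosine antibody PT66, excitation 320 nm.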
(Time-resolved FRET reads energy transfer from a long-lived donor to a nearby acceptor.)
On to `C=CCNS(=O)(=O)c1cccc(C(=O)/N=c2\[nH]c3cnc(OCCN4CCCCC4)cc3n2[C@H]2CC[C@H](C(N)=O)CC2)c1` [Example 244, (E)-3-(N-Allylsulfamoyl)-N-(1-(trans-4-carbamoylcyclohexyl)-6-(2-(piperidin-1-yl)ethoxy)-1H-imidazo[4,5-c]pyridin-2(3H)-ylidene)benzamide], for which the IC50 is 50 to 100 nM.

The compound `CC(C)NC(=O)[C@H]1CC[C@@H](n2/c(=N/C(=O)c3ccc(F)cc3)[nH]c3ccc(CN4CCN(CCO)CC4)cc32)CC1` [Example 173, (E)-4-Fluoro-N-(6-((4-(2-hydroxyethyl)piperazin-1-yl)methyl)-1-(cis-4-(isopropylcarbamoyl)cyclohexyl)-1H-benzo[d]imidazol-2(3H)-ylidene)benzamide] showed a concentration for half-maximal inhibition (IC50) of less than 50 nM.

For `CC(C)NC(=O)[C@H]1CC[C@@H](n2/c(=N/C(=O)c3cccc(F)c3)[nH]c3cnc(OCCN4CCCCC4)cc32)CC1` [Example 108, (E)-3-Fluoro-N-(1-(cis-4-(isopropylcarbamoyl)cyclohexyl)-6-(2-(piperidin-1-yl)ethoxy)-1H-imidazo[4,5-c]pyridin-2(3H)-ylidene)benzamide], the IC50 is less than 50 nM.

Take `CC(C)NC(=O)[C@H]1CC[C@@H](n2/c(=N/C(=O)c3ccc(F)cc3)[nH]c3ccc(CN4CCC(F)(F)CC4)cc32)CC1` [Example 191, (E)-N-(6-((4,4-Difluoropiperidin-1-yl)methyl)-1-(cis-4-(isopropylcarbamoyl)cyclohexyl)-1H-benzo[d]imidazol-2(3H)-ylidene)-4-fluorobenzamide]: the IC50 was less than 50 nM.

In turn, `CC(C)NC(=O)[C@H]1CC[C@@H](n2/c(=N/C(=O)c3ccc(F)cc3)[nH]c3ccc(OCCN4CCOCC4)cc32)CC1` [Example 161, (E)-4-Fluoro-N-(1-(cis-4-(isopropylcarbamoyl)cyclohexyl)-6-(2-morpholinoethoxy)-1H-benzo[d]imidazol-2(3H)-ylidene)benzamide] had an IC50 of less than 50 nM.

As to `CC(C)NC(=O)[C@H]1CC[C@@H](n2/c(=N/C(=O)c3ccc(F)cc3)[nH]c3cnc(OC4CCN(CC(=O)OC(C)(C)C)CC4)cc32)CC1` [Example 167, tert-Butyl 2-(4-((E)-2-(4-fluorobenzoylimino)-1-(cis-4-(isopropylcarbamoyl)cyclohexyl)-2,3-dihydro-1H-imidazo[4,5-c]pyridin-6-yloxy)piperidin-1-yl)acetate], the IC50 is less than 50 nM.

In turn, `CC(C)NC(=O)[C@H]1CC[C@@H](n2/c(=N/C(=O)c3ccccn3)[nH]c3cnc(OCCN4CCCCC4)cc32)CC1` [Example 110, (E)-N-(1-(cis-4-(Isopropylcarbamoyl)cyclohexyl)-6-(2-(piperidin-1-yl)ethoxy)-1H-imidazo[4,5-c]pyridin-2(3H)-ylidene)picolinamide] registered an IC50 of 1000 to 5000 nM.

Consider `CC[N+](CC)(CC)Cc1ccc2[nH]/c(=N\C(=O)c3ccc(F)cc3)n([C@H]3CC[C@@H](C(=O)NC(C)C)CC3)c2c1` [Example 187, N,N-Diethyl-N-(((E)-2-(4-fluorobenzoylimino)-3-(cis-4-(isopropylcarbamoyl)cyclohexyl)-2,3-dihydro-1H-benzo[d]imidazol-5-yl)methyl)ethanaminium chloride], for which the IC50 is less than 50 nM.

For `COc1cc(C(=O)/N=c2\[nH]c3cnc(OCCN4CCCCC4)cc3n2[C@H]2CC[C@@H](C(=O)NC(C)C)CC2)ccc1F` [Example 113, (E)-4-Fluoro-N-(1-(cis-4-(isopropylcarbamoyl)cyclohexyl)-6-(2-(piperidin-1-yl)ethoxy)-1H-imidazo[4,5-c]pyridin-2(3H)-ylidene)-3-methoxybenzamide], the IC50 lay within 100 to 1000 nM.

On to `CC(C)NC(=O)[C@H]1CC[C@@H](n2/c(=N/C(=O)c3ccc(F)cc3)[nH]c3ccc(CN4CCC(CC(=O)O)CC4)cc32)CC1` [Example 48, 2-(1-(((E)-2-(4-Fluorobenzoylimino)-3-(cis-4-(isopropylcarbamoyl)cyclohexyl)-2,3-dihydro-1H-benzo[d]imidazol-5-yl)methyl)piperidin-4-yl)acetic acid], for which the 50% inhibitory concentration (IC50) is less than 50 nM.

The compound `CCOC(=O)[C@H]1CC[C@@H](n2/c(=N/C(=O)c3cccc(F)c3)[nH]c3cnc(OCCN4CCC(C(C)(C)O)CC4)cc32)CC1` [Example 78, cis-Ethyl 4-((E)-2-(3-fluorobenzoylimino)-6-(2-(4-(2-hydroxypropan-2-yl)piperidin-1-yl)ethoxy)-2,3-dihydro-1H-imidazo[4,5-c]pyridin-1-yl)cyclohexanecarboxylate] showed an IC50 of less than 50 nM.

As for `CC(C)NC(=O)[C@H]1CC[C@@H](n2/c(=N/C(=O)c3ccc(F)cc3)[nH]c3ccc(CN4CCC(CNCC(F)(F)F)CC4)cc32)CC1` [Example 190, (E)-4-Fluoro-N-(1-(cis-4-(isopropylcarbamoyl)cyclohexyl)-6-((4-((2,2,2-trifluoroethylamino)methyl)piperidin-1-yl)methyl)-1H-benzo[d]imidazol-2(3H)-ylidene)benzamide], the half-maximal inhibitory concentration (IC50) is less than 50 nM.

Turning to `CC(C)NC(=O)[C@H]1CC[C@@H](n2/c(=N/C(=O)c3ccc(F)cc3)[nH]c3cnc(OC4CCN(C)CC4)cc32)CC1` [Example 169, (E)-4-Fluoro-N-(1-(cis-4-(isopropylcarbamoyl)cyclohexyl)-6-(1-methylpiperidin-4-yloxy)-1H-imidazo[4,5-c]pyridin-2(3H)-ylidene)benzamide], the IC50 was less than 50 nM.

The compound `CC(C)NC(=O)[C@H]1CC[C@@H](n2/c(=N/C(=O)c3ccc4ccn(C)c4c3)[nH]c3cnc(OCCN4CCCCC4)cc32)CC1` [Example 109, (E)-N-(1-(cis-4-(Isopropylcarbamoyl)cyclohexyl)-6-(2-(piperidin-1-yl)ethoxy)-1H-imidazo[4,5-c]pyridin-2(3H)-ylidene)-1-methyl-1H-indole-6-carboxamide] returned an IC50 of 1000 to 5000 nM.

Compound `CC(C)(O)C1CCN(Cc2ccc3[nH]/c(=N\C(=O)c4ccc(F)cc4)n([C@H]4CC[C@@H](C(=O)N5CCCCC5)CC4)c3c2)CC1` [Example 216, (E)-4-Fluoro-N-(6-((4-(2-hydroxypropan-2-yl)piperidin-1-yl)methyl)-1-(cis-4-(piperidine-1-carbonyl)cyclohexyl)-1H-benzo[d]imidazol-2(3H)-ylidene)benzamide] had an IC50 of less than 50 nM.

Compound `CC(C)N(C)C(=O)[C@H]1CC[C@@H](n2/c(=N/C(=O)c3ccc(F)cc3)[nH]c3ccc(CN4CCCCC4)cc32)CC1` [Example 46, (E)-4-Fluoro-N-(1-(cis-4-(isopropyl(methyl)carbamoyl)cyclohexyl)-6-(piperidin-1-ylmethyl)-1H-benzo[d]imidazol-2(3H)-ylidene)benzamide] had an IC50 of less than 50 nM.

In turn, `CC(C)NC(=O)[C@H]1CC[C@@H](n2/c(=N/C(=O)c3ccc(F)cc3)[nH]c3cnc(OCCN4CCC(C(C)(C)O)CC4)cc32)CC1` [Example 128, (E)-4-Fluoro-N-(6-(2-(4-(2-hydroxypropan-2-yl)piperidin-1-yl)ethoxy)-1-(cis-4-(isopropylcarbamoyl)cyclohexyl)-1H-imidazo[4,5-c]pyridin-2(3H)-ylidene)benzamide] came in with an IC50 of less than 50 nM.

Compound `CC(C)NC(=O)[C@H]1CC[C@@H](n2/c(=N/C(=O)c3cccc(C(F)(F)F)c3)[nH]c3cnc(OCCN4CCCCC4)cc32)CC1` [Example 92, (E)-N-(1-(cis-4-(Isopropylcarbamoyl)cyclohexyl)-6-(2-(piperidin-1-yl)ethoxy)-1H-imidazo[4,5-c]pyridin-2(3H)-ylidene)-3-(trifluoromethyl)benzamide] gave an IC50 of less than 50 nM.
